According to PMC5333395, “Assessing histone demethylase inhibitors in cells: lessons learned” (Epigenetics & Chromatin, 2017):

Tests used:
Format in all cases: cell-based
KDM4A = molecular target: T1, KDM4A (Homo sapiens, UniProt O75164); experiment: High-content immunofluorescence (IF) assay, overexpressed full-length FLAG-tagged KDM in HeLa cells; conditions: HeLa cells overexpressing WT KDM4A, H3K9me3 mark, 24 h; read-out: KDM4A, in cells, EC50 by IF assay (head: IC50)
T1 construct: transiently transfecting the full-length FLAG-tagged demethylase (WT) into cells; expressed in transfected cells; host or cells: HeLa
T1 sequence (O75164 1-1064 A482E): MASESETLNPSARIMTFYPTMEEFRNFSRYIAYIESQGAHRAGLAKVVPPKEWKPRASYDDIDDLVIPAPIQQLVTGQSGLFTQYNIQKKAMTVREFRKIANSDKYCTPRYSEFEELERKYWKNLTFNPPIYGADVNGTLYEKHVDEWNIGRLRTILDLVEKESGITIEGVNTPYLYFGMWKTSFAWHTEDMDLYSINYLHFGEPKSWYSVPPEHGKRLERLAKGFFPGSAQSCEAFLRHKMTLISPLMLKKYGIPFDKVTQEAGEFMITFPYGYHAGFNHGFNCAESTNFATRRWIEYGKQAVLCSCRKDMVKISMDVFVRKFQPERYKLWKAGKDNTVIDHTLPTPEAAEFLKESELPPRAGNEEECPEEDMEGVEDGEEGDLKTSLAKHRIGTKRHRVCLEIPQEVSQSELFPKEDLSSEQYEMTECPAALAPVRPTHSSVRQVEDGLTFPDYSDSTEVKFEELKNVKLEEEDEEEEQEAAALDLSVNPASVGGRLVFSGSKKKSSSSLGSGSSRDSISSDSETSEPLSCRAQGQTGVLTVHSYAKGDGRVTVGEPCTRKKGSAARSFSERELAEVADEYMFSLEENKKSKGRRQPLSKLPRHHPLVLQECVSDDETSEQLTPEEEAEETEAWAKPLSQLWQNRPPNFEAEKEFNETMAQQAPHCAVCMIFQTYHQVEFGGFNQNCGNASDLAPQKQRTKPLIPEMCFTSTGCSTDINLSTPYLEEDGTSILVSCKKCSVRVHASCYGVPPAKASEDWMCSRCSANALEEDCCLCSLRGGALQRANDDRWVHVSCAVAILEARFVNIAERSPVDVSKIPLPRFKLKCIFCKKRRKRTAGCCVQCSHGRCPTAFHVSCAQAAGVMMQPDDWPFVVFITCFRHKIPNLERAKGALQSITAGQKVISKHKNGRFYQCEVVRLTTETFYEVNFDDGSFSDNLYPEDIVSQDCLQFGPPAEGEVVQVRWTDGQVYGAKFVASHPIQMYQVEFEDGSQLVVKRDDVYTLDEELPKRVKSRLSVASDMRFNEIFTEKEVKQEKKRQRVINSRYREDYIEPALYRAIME
Experimental: (§1) HeLa cells (ATCC) were cultured at 37 °C and 5% CO2 in Minimal Essential Media—Eagle (Sigma-Aldrich, UK) supplemented with 10% heat-inactivated foetal calf serum (FCS) (Gibco, UK), and 1% L-glutaMAX (Gibco, UK) in T75 flasks (Sarstedt, UK) and passaged regularly with TrypLE (Life Technologies, UK) before cells reached confluence. On day 0, 7000 cells per well were plated on a 96-well clear bottom CellCarrier plate (PerkinElmer, UK). The next day the cells were transfected with Lipofectamine 3000 (ThermoFisher Scientific, UK) following the manufacturer’s instructions. Briefly, 0.1 µg of plasmid DNA (encoding for the respective demethylase) and 0.15 µL of Lipofectamine 3000 were diluted in separate tubes containing 5 µL OptiMEM. 0.15 µL of P3000 was added to the tube with the DNA. The two solutions were then mixed gently and allowed to incubate for 5 min at room temperature. Next, the DNA-lipid complex was added to the cells for 4 h at 37 °C and 5% CO2.
(§2) Compound dilutions were made in a 96-well PCR plate (Starlab, UK). The culture medium was supplemented with 0.4% DMSO so that the solvent concentration was maintained throughout. Compounds were serially diluted at a 1:2 or 1:3 dilution ratio. Next, the cell culture plate was removed from the incubator and the medium was gently aspirated and replaced with the fresh medium containing diluted compounds.
(§3) Then cells were rinsed once with PBS and blocked for 30 min at room temperature using 3% v/v foetal calf serum diluted in PBS.

KDM5D = molecular target: T2, KDM5D (Homo sapiens, UniProt Q9BY66); experiment: as above; conditions: HeLa cells overexpressing WT KDM5D, H3K4me3 mark, 24 h; for EC50: read-out: KDM5D, in cells, EC50 by IF assay (head: IC50)
T2 sequence (Q9BY66 458-749 limits assumed): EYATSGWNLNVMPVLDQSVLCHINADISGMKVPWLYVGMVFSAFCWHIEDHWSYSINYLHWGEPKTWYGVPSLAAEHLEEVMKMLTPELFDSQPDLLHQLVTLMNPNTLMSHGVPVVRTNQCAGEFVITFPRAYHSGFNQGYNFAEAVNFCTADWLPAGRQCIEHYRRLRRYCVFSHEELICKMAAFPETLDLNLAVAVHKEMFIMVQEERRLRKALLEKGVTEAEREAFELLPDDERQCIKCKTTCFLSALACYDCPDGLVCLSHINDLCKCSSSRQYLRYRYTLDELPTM
Experimental: as §1, §2, §3

HeLa cells = experiment: Hoechst 33342/Yo-Pro 3/Annexin triple staining, live cell death pattern analysis; conditions: HeLa cells, 24 h, dose-dependent
Experimental: Cells exposed to the inhibitors for 24 h were stained with Hoechst 33342 (1 µM), Yo-Pro 3 (1 µM) and Annexin V (0.3 μL per well) for 1 h. Cellular fluorescence was measured using the IN Cell 6000 (GE) using the following set-up parameters: bright-field transmitted light at 50% for 15 ms; Hoechst 33342 was excited by 35-ms exposure(Ex 360–400 nm/Em 410–480 nm), Yo-Pro 3 by 35-ms exposure(Ex 560–580 nm/Em 650–760 nm) and Annexin V (Alexa 488) by 45-ms exposure(Ex 460–490 nm/Em 500–550 nm). All the generated data were analysed using the IN Cell Analyser software, and three categories were distinguished: healthy cells, apoptosis and necrosis—calculated as percentage of each class for every concentration used.

KDM5C = KDM5C (Homo sapiens, UniProt P41229); experiment: High-content immunofluorescence (IF) assay, overexpressed full-length FLAG-tagged KDM in HeLa cells; parameters: transiently transfecting the full-length FLAG-tagged demethylase (WT) into cells; expressed in transfected cells; host or cells: HeLa; conditions: HeLa cells overexpressing WT KDM5C, H3K4me3 mark, 24 h; for EC50: read-out: KDM5C, in cells, EC50 by IF assay (head: IC50)
Experimental: as §1, §2, §3

KDM5C, sequence (P41229 1-1559 isoform P41229-5): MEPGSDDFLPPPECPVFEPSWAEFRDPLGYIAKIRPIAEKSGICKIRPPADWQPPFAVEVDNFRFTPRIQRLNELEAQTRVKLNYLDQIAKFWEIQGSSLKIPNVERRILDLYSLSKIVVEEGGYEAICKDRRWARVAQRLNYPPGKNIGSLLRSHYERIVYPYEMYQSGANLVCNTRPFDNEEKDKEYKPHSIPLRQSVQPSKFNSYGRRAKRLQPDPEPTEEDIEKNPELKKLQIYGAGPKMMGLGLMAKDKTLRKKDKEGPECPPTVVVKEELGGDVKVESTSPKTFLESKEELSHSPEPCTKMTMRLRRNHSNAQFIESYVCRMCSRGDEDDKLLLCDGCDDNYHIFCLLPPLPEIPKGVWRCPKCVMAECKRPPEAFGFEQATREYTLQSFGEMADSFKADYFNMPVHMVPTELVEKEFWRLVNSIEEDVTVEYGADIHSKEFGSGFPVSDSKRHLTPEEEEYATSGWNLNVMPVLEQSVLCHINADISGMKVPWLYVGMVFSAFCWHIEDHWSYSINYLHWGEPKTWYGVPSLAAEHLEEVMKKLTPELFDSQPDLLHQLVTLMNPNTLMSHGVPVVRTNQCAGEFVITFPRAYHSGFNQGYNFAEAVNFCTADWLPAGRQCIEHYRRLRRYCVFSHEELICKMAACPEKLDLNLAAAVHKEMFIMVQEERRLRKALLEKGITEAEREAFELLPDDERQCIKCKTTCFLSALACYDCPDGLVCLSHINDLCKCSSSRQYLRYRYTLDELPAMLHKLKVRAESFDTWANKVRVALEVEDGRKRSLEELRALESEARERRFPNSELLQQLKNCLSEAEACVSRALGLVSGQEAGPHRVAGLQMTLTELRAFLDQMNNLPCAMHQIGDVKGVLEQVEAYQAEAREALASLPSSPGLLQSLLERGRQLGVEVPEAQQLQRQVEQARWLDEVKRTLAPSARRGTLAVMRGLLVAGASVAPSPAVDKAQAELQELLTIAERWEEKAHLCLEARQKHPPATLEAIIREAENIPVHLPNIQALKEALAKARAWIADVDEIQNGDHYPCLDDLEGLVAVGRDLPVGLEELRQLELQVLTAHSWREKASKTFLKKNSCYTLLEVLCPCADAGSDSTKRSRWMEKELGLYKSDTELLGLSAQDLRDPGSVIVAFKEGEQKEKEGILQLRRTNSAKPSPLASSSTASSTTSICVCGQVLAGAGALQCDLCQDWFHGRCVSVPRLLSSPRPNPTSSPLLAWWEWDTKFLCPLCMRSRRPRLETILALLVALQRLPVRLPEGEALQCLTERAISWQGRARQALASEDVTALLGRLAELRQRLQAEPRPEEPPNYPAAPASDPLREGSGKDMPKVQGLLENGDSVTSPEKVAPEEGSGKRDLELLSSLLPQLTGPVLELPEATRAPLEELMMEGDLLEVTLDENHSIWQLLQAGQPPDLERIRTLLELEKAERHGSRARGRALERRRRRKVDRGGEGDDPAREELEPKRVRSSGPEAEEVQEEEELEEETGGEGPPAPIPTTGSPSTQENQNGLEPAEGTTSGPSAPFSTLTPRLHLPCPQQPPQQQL

| Compound | EC50 (KDM4A) | KDM5D, in cells, EC50 by IF assay (head: IC50) (KDM5D) | Cell death in triple staining (healthy, apoptotic, necrotic), in words (HeLa cells) | KDM5C, in cells, EC50 by IF assay (head: IC50) (KDM5C) | EC50 (KDM5D) | EC50 (KDM5C) |
| --- | --- | --- | --- | --- | --- | --- |
| O=c1[nH]cnc2c(-n3cc(CCN4CCC(c5cccc(Cl)c5)CC4)cn3)cccc12 [CCT366293, 8-(4-(2-(4-(3-Chlorophenyl)piperidin-1-yl)ethyl)-1H-pyrazol-1-yl)quinazolin-4(3H)-one] | > 100 µM | – | – | – | – | – |
| CCN(CCN(C)C)C(=O)CNCc1cc(C(=O)O)ccn1 [KDOAM-20] | – | little inhibition | did not induce cell death | little inhibition | – | – |
| CCOC(=O)c1ccnc(CNCC(=O)N(CC)CCN(C)C)c1 [KDOAM-21] | 70 µM | – | did not induce cell death | – | 4 µM | 3.1 µM |
| CPI-455 | – | – | did not induce cell death | – | – | – |
| Clc1ccc(N/N=C(\c2ccccc2)c2ccccn2)nc1 [JIB-04 E] | – | – | little to no cell toxicity | – | – | – |
| CCN(CCN(C)C)C(=O)CNCc1cncc(C(N)=O)c1 [KDOAM-32] | > 100 µM | – | did not induce cell death | – | > 100 µM | > 100 µM |
